The source made the active and inactive calls. No cut-off for these calls is given here.
Columns and labels:
Rattus norvegicus [1] = assay: Antioxidant activity in L-T4-induced Wistar albino rat model of hyperthyroidism assessed as lipid peroxidation level by measuring MDA formation per mg protein at 30 mg/kg, po qd post 12 days of L-T4 challenge measured after 15 days by TBARS assay (reference value: 1.34 +/- 0.19 nM/hr); type: functional
Rattus norvegicus [2] = assay: Antioxidant activity in L-T4-induced Wistar albino rat model of hyperthyroidism assessed as lipid peroxidation level by measuring MDA formation per mg protein at 20 mg/kg, po qd post 12 days of L-T4 challenge measured after 15 days by TBARS assay (reference value: 1.34 +/- 0.19 nM/hr); type: functional
Rattus norvegicus [3] = assay: Antithyroid activity in L-T4-induced Wistar albino rat model of hyperthyroidism assessed as serum T3 level at 10 mg/kg, po qd post 12 days of L-T4 challenge measured after 15 days in presence of [125I]-T3 by RIA (reference value: 2.31 +/- 0.53 ng/ml); type: functional
Rattus norvegicus [4] = assay: Antithyroid activity in L-T4-induced Wistar albino rat model of hyperthyroidism assessed as reduction in glucose-6-phosphatase activity at 20 mg/kg, po qd post 12 days of L-T4 challenge measured after 15 days; type: functional, organism-based
Rattus norvegicus [5] = assay: Antithyroid activity in L-T4-induced Wistar albino rat model of hyperthyroidism assessed as serum T3 level at 30 mg/kg, po qd post 12 days of L-T4 challenge measured after 15 days in presence of [125I]-T3 by RIA (reference value: 2.31 +/- 0.53 ng/ml); type: functional
Rattus norvegicus [6] = assay: Antithyroid activity in L-T4-induced Wistar albino rat model of hyperthyroidism assessed as reduction in T3 level at 20 mg/kg, po qd post 12 days of L-T4 challenge measured after 15 days in presence of [125I]-T3 by RIA; type: functional
Rattus norvegicus [7] = assay: Antithyroid activity in L-T4-induced Wistar albino rat model of hyperthyroidism assessed as decrease in body weight loss at 20 mg/kg, po qd post 12 days of L-T4 challenge measured after 15 days; type: functional, organism-based
Rattus norvegicus [8] = assay: Antioxidant activity in L-T4-induced Wistar albino rat model of hyperthyroidism assessed as increase in superoxide dismutase activity by measuring pyrogallol oxidization per mg protein at 20 mg/kg, po qd administered post 12 days of L-T4 challenge measured on day 28; type: functional, organism-based
Rattus norvegicus [9] = assay: Antioxidant activity in L-T4-induced Wistar albino rat model of hyperthyroidism assessed as reduction in total GSH content per mg of protein at 20 mg/kg, po qd administered post 12 days of L-T4 challenge measured after 15 days by Ellman's method; type: functional, organism-based
Rattus norvegicus [10] = assay: (§1) Antithyroid activity in L-T4-induced Wistar albino rat model of hyperthyroidism assessed as inhibition of hepatic 5'-monodeiodinase 1 activity using T4 as substrate at 20 mg/kg, po qd post 12 days of L-T4 challenge measured after 15 days in presence of [125I]-T3 by RIA; type: functional, organism-based
Rattus norvegicus [11] = assay: as §1, with “1 activity by measuring reduction in T3 level using T4” for “1 activity using T4”; type: functional
Rattus norvegicus [12] = assay: Antioxidant activity in L-T4-induced Wistar albino rat model of hyperthyroidism assessed as increase in catalase activity by measuring H2O2 utilization per mg protein at 20 mg/kg, po qd administered post 12 days of L-T4 challenge measured every 5 secs for 30 secs on day 28 by spectrophotometric method; type: functional, organism-based
Rattus norvegicus [13] = assay: Antioxidant activity in L-T4-induced Wistar albino rat model of hyperthyroidism assessed as lipid peroxidation level by measuring MDA formation per mg protein at 10 mg/kg, po qd post 12 days of L-T4 challenge measured after 15 days by TBARS assay (reference value: 1.34 +/- 0.19 nM/hr); type: functional
Rattus norvegicus [14] = assay: Antithyroid activity in L-T4-induced Wistar albino rat model of hyperthyroidism assessed as serum T3 level at 20 mg/kg, po qd post 12 days of L-T4 challenge measured after 15 days in presence of [125I]-T3 by RIA (reference value: 2.31 +/- 0.53 ng/ml); type: functional
Rattus norvegicus [15] = assay: Antithyroid activity in L-T4-induced Wistar albino rat model of hyperthyroidism assessed as reduction in T4 level at 20 mg/kg, po qd post 12 days of L-T4 challenge measured after 15 days in presence of [125I]-T4 by RIA; type: functional
Rattus norvegicus [16] = assay: Antithyroid activity in L-T4-induced Wistar albino rat model of hyperthyroidism assessed as serum T4 level at 30 mg/kg, po qd post 12 days of L-T4 challenge measured after 15 days in presence of [125I]-T4 by RIA (reference value: 92.14 +/- 3.45 ng/ml); type: functional
Rattus norvegicus [17] = assay: Antithyroid activity in L-T4-induced Wistar albino rat model of hyperthyroidism assessed as serum T4 level at 20 mg/kg, po qd post 12 days of L-T4 challenge measured after 15 days in presence of [125I]-T4 by RIA (reference value: 92.14 +/- 3.45 ng/ml); type: functional
Rattus norvegicus [18] = assay: Antithyroid activity in L-T4-induced Wistar albino rat model of hyperthyroidism assessed as serum T4 level at 10 mg/kg, po qd post 12 days of L-T4 challenge measured after 15 days in presence of [125I]-T4 by RIA (reference value: 92.14 +/- 3.45 ng/ml); type: functional
Rattus norvegicus [19] = species: Rattus norvegicus; assay: animal or person; conditions: Wistar, po, read-out: INH
Description: Antithyroid activity in L-T4-induced Wistar albino rat model of hyperthyroidism assessed as reduction in T3 level at 10 mg/kg, po qd post 12 days of L-T4 challenge measured after 15 days in presence of [125I]-T3 by RIA

Rattus norvegicus [20] = species: Rattus norvegicus; assay: animal or person; conditions: Wistar, po, read-out: INH; remark: listed apart in the source
Description: Antithyroid activity in L-T4-induced Wistar albino rat model of hyperthyroidism assessed as reduction in T4 level at 10 mg/kg, po qd post 12 days of L-T4 challenge measured after 15 days in presence of [125I]-T4 by RIA

Rattus norvegicus [21] = species: Rattus norvegicus; assay: animal or person; conditions: Wistar, po, read-out: INH; remark: listed apart in the source
Description: Antithyroid activity in L-T4-induced Wistar albino rat model of hyperthyroidism assessed as inhibition of hepatic 5'-monodeiodinase 1 activity by measuring reduction in T3 level using T4 as substrate at 10 mg/kg, po qd post 12 days of L-T4 challenge measured after 15 days in presence of [125I]-T3 by RIA

C[C@@H]1CC[C@@]2(OC1)O[C@H]1C[C@H]3[C@@H]4CC[C@H]5C[C@@H](O[C@@H]6O[C@H](CO)[C@H](O)[C@H](O[C@@H]7O[C@H](CO)[C@@H](O)[C@H](O)[C@H]7O[C@@H]7O[C@H](CO)[C@@H](O)[C@H](O)[C@H]7O)[C@H]6O)[C@H](O)C[C@]5(C)[C@H]4CC[C@]3(C)[C@H]1[C@@H]2C
Activity (Rattus norvegicus [1]): 0.976 nM/h | Activity (Rattus norvegicus [2]): 0.312 nM/h | Activity (Rattus norvegicus [3]): 1.91 ng/mL | Activity (Rattus norvegicus [4]): Active | Activity (Rattus norvegicus [5]): 0.99 ng/mL | inhibition in vivo at 20 mg/kg (Rattus norvegicus [6]): 56% | Activity (Rattus norvegicus [7]): Active | Activity (Rattus norvegicus [8]): Active | Activity (Rattus norvegicus [9]): Active | inhibition (Rattus norvegicus [10]): Active | inhibition in vivo at 20 mg/kg (Rattus norvegicus [11]): 75.1% | Activity (Rattus norvegicus [12]): Active | Activity (Rattus norvegicus [13]): 0.871 nM/h | Activity (Rattus norvegicus [14]): 0.31 ng/mL | inhibition in vivo at 20 mg/kg (Rattus norvegicus [15]): 88.8% | Activity (Rattus norvegicus [16]): 49.85 ng/mL | Activity (Rattus norvegicus [17]): 38.7 ng/mL | Activity (Rattus norvegicus [18]): 79.81 ng/mL

CCCc1cc(=O)[nH]c(=S)[nH]1 [PROPYLTHIOURACIL]
inhibition in vivo at 10 mg/kg (Rattus norvegicus [19]): 56.5% | inhibition in vivo at 10 mg/kg (Rattus norvegicus [20]): 81% | inhibition in vivo at 10 mg/kg (Rattus norvegicus [21]): 59%
